In ChEMBL document CHEMBL3244272, “Folate antagonists. 15. 2,3-Diamino-6-(2-naphthylsulfonyl)quinazoline and related 2,4-diamino-6-[(phenyl and naphthyl)sulfinyl and sulfonyl]quinazolines, a potent new class of antimetabolites with phenomenal antimalarial activity” (J Med Chem, 1979):
Converted amounts (≈) assume the structure as drawn. The source made the active and inactive calls. The rule behind the calls is not given here.

How the values were obtained:
Plasmodium gallinaceum [1] = assay: Antimalarial activity against cycloguanil-resistant Plasmodium gallinaceum infected in mouse assessed as dose required to suppress parasitemia by 90% compound treated through gavage for 3 days; type: functional
Plasmodium gallinaceum [2] = assay: Antimalarial activity against cycloguanil-resistant Plasmodium gallinaceum infected in mouse assessed as dose required to suppress parasitemia by 90% compound treated through gavage for 3 days relative to parent strain; type: functional
Plasmodium falciparum [3] = assay: Antimalarial activity against chloroquine-sensitive, pyrimethamine-resistant Plasmodium falciparum Malayan Camp CH/Q infected in Aotus monkey assessed as dose required to >50% cures compound treated for 7 days; type: functional
Plasmodium falciparum [4] = assay: Antimalarial activity against chloroquine-resistant, pyrimethamine-sensitive Plasmodium falciparum Vietnam Oak Knoll in Aotus monkey assessed as dose required to >50% cures compound treated for 7 days; type: functional
Plasmodium falciparum [5] = assay: Antimalarial activity against Plasmodium falciparum Malayan Camp CH/Q infected in po once daily dosed Owl monkey assessed as curative dose compound treated for 7 days; type: functional
Plasmodium falciparum [6] = assay: Antimalarial activity against Plasmodium falciparum Vietnam Oak Knoll in po once daily dosed Owl monkey assessed as curative dose compound treated for 7 days; type: functional
Plasmodium falciparum [7] = assay: Antimalarial activity against Plasmodium falciparum Vietnam Smith in po once daily dosed Owl monkey assessed as curative dose compound treated for 7 days; type: functional
Plasmodium vivax [8] = assay: Antimalarial activity against Plasmodium vivax New Guinea Chesson in po once daily dosed Owl monkey assessed as curative dose compound treated for 7 days; type: functional
Plasmodium vivax [9] = assay: Antimalarial activity against Plasmodium vivax VietnamPalo Alto in po once daily dosed Owl monkey assessed as curative dose compound treated for 7 days; type: functional
Plasmodium falciparum [10] = assay: Antimalarial activity against Plasmodium falciparum Malayan Camp CH/Q infected in po dosed Owl monkey assessed as curative dose compound treated for 7 days in presence of 5 mg/kg sulfadiazine for 7 days; type: functional
Plasmodium falciparum [11] = assay: Antimalarial activity against Plasmodium falciparum Vietnam Oak Knoll in po dosed Owl monkey assessed as curative dose compound treated for 7 days in presence of 5 mg/kg sulfadiazine for 7 days; type: functional
Plasmodium falciparum [12] = assay: Antimalarial activity against Plasmodium falciparum Vietnam Smith in po dosed Owl monkey assessed as curative dose compound treated for 7 days in presence of 5 mg/kg sulfadiazine for 7 days; type: functional
Plasmodium vivax [13] = assay: Antimalarial activity against Plasmodium vivax VietnamPalo Alto in po dosed Owl monkey assessed as curative dose compound treated for 7 days in presence of 5 mg/kg sulfadiazine for 7 days; type: functional
Enterococcus faecalis [14] = assay: Antibacterial activity against Streptococcus faecalis MGH-2 assessed as growth inhibition; type: functional
Staphylococcus aureus [15] = assay: Antibacterial activity against Staphylococcus aureus UC-76 assessed as growth inhibition; type: functional
Staphylococcus aureus [16] = assay: Antibacterial activity against Staphylococcus aureus S18713 assessed as growth inhibition; type: functional
Pseudomonas aeruginosa = assay: Antibacterial activity against Pseudomonas aeruginosa 28 assessed as growth inhibition; type: functional
Escherichia coli = assay: Antibacterial activity against Escherichia coli Vogel assessed as growth inhibition; type: functional
Shigella sonnei = assay: Antibacterial activity against Shigella sonnei C-10 assessed as growth inhibition; type: functional
[17] = test system: Mycobacterium tuberculosis; assay: Antibacterial activity against Mycobacterium tuberculosis H37Rv assessed as growth inhibition; type: functional
Enterococcus faecalis [18] = assay: Antibacterial activity against Streptococcus faecalis assessed as growth inhibition; type: functional, organism-based
Lacticaseibacillus casei = assay: Antibacterial activity against Lactobacillus casei assessed as growth inhibition; type: functional, organism-based
[19] = Antibacterial activity against Pediococcus cerevisiae assessed as growth inhibition; type: functional
[20] = Inhibition of Plasmodium berghei dihydrofolate reductase
Plasmodium berghei [21] = assay: Antimalarial activity against trophozoite-induced Plasmodium berghei infected in sc dosed mouse assessed as minimum curative dose; type: functional
Plasmodium berghei [22] = assay: Antimalarial activity against trophozoite-induced Plasmodium berghei infected in mouse assessed as change in mean survival time at 5 mg/kg, sc single dose after 72 hrs of infection; type: functional; conditions: route subcutaneous
Plasmodium berghei [23] = assay: Antimalarial activity against trophozoite-induced Plasmodium berghei infected in mouse assessed as change in mean survival time at 2.5 mg/kg, sc single dose after 72 hrs of infection; type: functional; conditions: route subcutaneous
Plasmodium berghei [24] = assay: Antimalarial activity against trophozoite-induced Plasmodium berghei infected in mouse assessed as change in mean survival time at 1.25 mg/kg, sc single dose after 72 hrs of infection; type: functional; conditions: route subcutaneous
Plasmodium gallinaceum [25] = assay: Antimalarial activity against trophozoite-induced Plasmodium gallinaceum infected in chick assessed as mean survival time at 40 mg/kg, sc single dose (reference value: 4 days); type: functional; conditions: route subcutaneous
Plasmodium gallinaceum [26] = assay: Antimalarial activity against trophozoite-induced Plasmodium gallinaceum infected in chick assessed as mean survival time at 20 mg/kg, sc single dose (reference value: 4 days); type: functional; conditions: route subcutaneous
Plasmodium gallinaceum [27] = assay: Antimalarial activity against trophozoite-induced Plasmodium gallinaceum infected in chick assessed as mean survival time at 10 mg/kg, sc single dose (reference value: 4 days); type: functional; conditions: route subcutaneous
Plasmodium gallinaceum [28] = assay: Antimalarial activity against trophozoite-induced Plasmodium gallinaceum infected in chick assessed as mean survival time at 5 mg/kg, sc single dose (reference value: 4 days); type: functional; conditions: route subcutaneous
Plasmodium gallinaceum [29] = assay: Antimalarial activity against trophozoite-induced Plasmodium gallinaceum infected in chick assessed as mean survival time at 2.5 mg/kg, sc single dose (reference value: 4 days); type: functional; conditions: route subcutaneous
Plasmodium gallinaceum [30] = assay: Antimalarial activity against trophozoite-induced Plasmodium gallinaceum infected in chick assessed as mean survival time at 1.25 mg/kg, sc single dose (reference value: 4 days); type: functional; conditions: route subcutaneous
Plasmodium gallinaceum [31] = assay: Antimalarial activity against trophozoite-induced Plasmodium gallinaceum infected in chick assessed as cured at 5 mg/kg, sc single dose; type: functional, organism-based; set-up: dose 5 mg/kg
Plasmodium gallinaceum [32] = assay: Antimalarial activity against trophozoite-induced Plasmodium gallinaceum infected in chick assessed as cured at 2.5 mg/kg, sc single dose; type: functional, organism-based; set-up: dose 2.5 mg/kg
Plasmodium gallinaceum [33] = assay: Antimalarial activity against trophozoite-induced Plasmodium gallinaceum infected in chick assessed as cured at 1.25 mg/kg, sc single dose; type: functional, organism-based; set-up: dose 1.25 mg/kg
Plasmodium gallinaceum [34] = assay: Antimalarial activity against trophozoite-induced Plasmodium gallinaceum infected in chick assessed as cured at 40 mg/kg, sc single dose; type: functional, organism-based; set-up: dose 40 mg/kg
Plasmodium gallinaceum [35] = assay: Antimalarial activity against trophozoite-induced Plasmodium gallinaceum infected in chick assessed as cured at 20 mg/kg, sc single dose; type: functional, organism-based; set-up: dose 20 mg/kg
Plasmodium gallinaceum [36] = assay: Antimalarial activity against trophozoite-induced Plasmodium gallinaceum infected in chick assessed as cured at 10 mg/kg, sc single dose; type: functional, organism-based; set-up: dose 10 mg/kg
Gallus gallus [37] = assay: Toxicity in trophozoite-induced Plasmodium gallinaceum infected in chick assessed as death at 40 mg/kg, sc single dose measured within 48 hrs; type: organism-based; set-up: dose 40 mg/kg, route subcutaneous; conditions: chicken, in vivo
Gallus gallus [38] = assay: Toxicity in trophozoite-induced Plasmodium gallinaceum infected in chick assessed as death at 20 mg/kg, sc single dose measured within 48 hrs; type: organism-based; set-up: dose 20 mg/kg, route subcutaneous; conditions: chicken, in vivo
Gallus gallus [39] = assay: Toxicity in trophozoite-induced Plasmodium gallinaceum infected in chick assessed as death at 10 mg/kg, sc single dose measured within 48 hrs; type: organism-based; set-up: dose 10 mg/kg, route subcutaneous; conditions: chicken, in vivo
Gallus gallus [40] = assay: Toxicity in trophozoite-induced Plasmodium gallinaceum infected in chick assessed as death at 5 mg/kg, sc single dose measured within 48 hrs; type: organism-based; set-up: dose 5 mg/kg, route subcutaneous; conditions: chicken, in vivo
Gallus gallus [41] = assay: Toxicity in trophozoite-induced Plasmodium gallinaceum infected in chick assessed as death at 2.5 mg/kg, sc single dose measured within 48 hrs; type: organism-based; set-up: dose 2.5 mg/kg, route subcutaneous; conditions: chicken, in vivo
Gallus gallus [42] = assay: Toxicity in trophozoite-induced Plasmodium gallinaceum infected in chick assessed as death at 1.25 mg/kg, sc single dose measured within 48 hrs; type: organism-based; set-up: dose 1.25 mg/kg, route subcutaneous; conditions: chicken, in vivo
Gallus gallus [43] = assay: Toxicity in trophozoite-induced Plasmodium gallinaceum infected in chick assessed as death at 80 mg/kg, sc single dose measured within 48 hrs; type: organism-based; set-up: dose 80 mg/kg, route subcutaneous; conditions: chicken, in vivo
Plasmodium gallinaceum [44] = assay: Antimalarial activity against trophozoite-induced Plasmodium gallinaceum infected in chick assessed as mean survival time at 0.63 mg/kg, sc single dose (reference value: 4 days); type: functional; conditions: route subcutaneous
Plasmodium gallinaceum [45] = assay: Antimalarial activity against trophozoite-induced Plasmodium gallinaceum infected in chick assessed as cured at 0.63 mg/kg, sc single dose; type: functional, organism-based; set-up: dose 0.63 mg/kg
Gallus gallus [46] = assay: Toxicity in trophozoite-induced Plasmodium gallinaceum infected in chick assessed as death at 160 mg/kg, sc single dose measured within 48 hrs; type: organism-based; set-up: dose 160 mg/kg, route subcutaneous; conditions: chicken, in vivo
Gallus gallus [47] = assay: Toxicity in trophozoite-induced Plasmodium gallinaceum infected in chick assessed as death at 0.63 mg/kg, sc single dose measured within 48 hrs; type: organism-based; set-up: dose 0.63 mg/kg, route subcutaneous; conditions: chicken, in vivo
Gallus gallus [48] = assay: Toxicity in trophozoite-induced Plasmodium gallinaceum infected in chick assessed as death at 320 mg/kg, sc single dose measured within 48 hrs; type: organism-based; set-up: dose 320 mg/kg, route subcutaneous; conditions: chicken, in vivo
Plasmodium gallinaceum [49] = assay: Antimalarial activity against cycloguanil-resistant Plasmodium gallinaceum infected in mouse assessed as dose required to suppress parasitemia by 90% compound treated through diet for 6 days relative to parent strain; type: functional

Nc1nc(N)c2cc(S(=O)(=O)c3ccc4ccccc4c3)ccc2n1
Activity (Plasmodium gallinaceum [1]): 2.4 mg/kg | fold change (FC) (Plasmodium gallinaceum [2]): 0 | Activity (Plasmodium falciparum [3]): 0.39 mg/kg | Activity (Plasmodium falciparum [4]): 0.025 mg/kg | CD90 (Plasmodium falciparum [5]): 0.39 mg/kg | CD90 (Plasmodium falciparum [6]): 0.098 mg/kg | CD90 (Plasmodium falciparum [7]): >6.25 mg/kg | CD90 (Plasmodium vivax [8]): 0.39 mg/kg | CD90 (Plasmodium vivax [9]): 6.25 mg/kg | CD90 (Plasmodium falciparum [10]): 0.025 mg/kg | CD90 (Plasmodium falciparum [11]): 0.00156 mg/kg | CD90 (Plasmodium falciparum [12]): 0.39 mg/kg | CD90 (Plasmodium vivax [13]): 0.098 mg/kg | MIC (Enterococcus faecalis [14]): > 25 µg/mL | MIC (Staphylococcus aureus [15]): 25 µg/mL (≈ 71.3 µM) | MIC (Staphylococcus aureus [16]): > 25 µg/mL | MIC (Pseudomonas aeruginosa): > 25 µg/mL | MIC (Escherichia coli): > 25 µg/mL | MIC (Shigella sonnei): > 25 µg/mL | MIC [17]: > 25 µg/mL | IC50 (Enterococcus faecalis [18]): 0.007 ng/mL (≈ 2e-05 µM) | IC50 (Lacticaseibacillus casei): 0.00014 µg/mL (≈ 0.0004 µM) | IC50 [19]: 0.00016 µg/mL (≈ 0.000457 µM) | IC50 [20]: 2.4 nM | MCD (Plasmodium berghei [21]): 20 mg/kg | MST (Plasmodium berghei [22]): 15.6 days | MST (Plasmodium berghei [23]): 12.1 days | MST (Plasmodium berghei [24]): 10.9 days | MST (Plasmodium gallinaceum [25]): 20.4 days | MST (Plasmodium gallinaceum [26]): 15 days | MST (Plasmodium gallinaceum [27]): 13 days | MST (Plasmodium gallinaceum [28]): 11.8 days | MST (Plasmodium gallinaceum [29]): 8.8 days | MST (Plasmodium gallinaceum [30]): 6 days | Activity (Plasmodium gallinaceum [31]): Active | Activity (Plasmodium gallinaceum [32]): Active | Activity (Plasmodium gallinaceum [33]): Active | Activity (Plasmodium gallinaceum [34]): Active | Activity (Plasmodium gallinaceum [35]): Active | Activity (Plasmodium gallinaceum [36]): Active | Activity (Gallus gallus [37]): Toxic | Activity (Gallus gallus [38]): Toxic | Activity (Gallus gallus [39]): Toxic | Activity (Gallus gallus [40]): Toxic | Activity (Gallus gallus [41]): Toxic | Activity (Gallus gallus [42]): Toxic

Nc1nc(N)c2cc(S(=O)(=O)c3ccc(Cl)cc3)ccc2n1
Activity (Gallus gallus [43]): Toxic | MCD (Plasmodium berghei [21]): 40 mg/kg | MST (Plasmodium berghei [23]): 12.2 days | MST (Plasmodium berghei [24]): 7.7 days | MST (Plasmodium gallinaceum [27]): 20 days | MST (Plasmodium gallinaceum [28]): 16 days | MST (Plasmodium gallinaceum [29]): 15 days | MST (Plasmodium gallinaceum [30]): 7.4 days | MST (Plasmodium gallinaceum [44]): 4 days | Activity (Plasmodium gallinaceum [32]): Active | Activity (Plasmodium gallinaceum [33]): Active | Activity (Plasmodium gallinaceum [45]): Active | Activity (Gallus gallus [46]): Toxic | Activity (Gallus gallus [37]): Toxic | Activity (Gallus gallus [38]): Toxic | Activity (Gallus gallus [39]): Toxic | Activity (Gallus gallus [40]): Toxic | Activity (Gallus gallus [41]): Toxic | Activity (Gallus gallus [42]): Toxic | Activity (Gallus gallus [47]): Toxic | Activity (Gallus gallus [48]): Toxic

Nc1nc(N)c2cc(Sc3ccc(Cl)cc3)ccc2n1
fold change (FC) (Plasmodium gallinaceum [49]): 4 | Activity (Plasmodium falciparum [3]): 5 mg/kg | Activity (Plasmodium falciparum [4]): 0.31 mg/kg
